Values belong to the compound of their own block, whether it stands above or below them.
Assays:
TRPV3 = biological target: T1, TRPV3 (Homo sapiens, UniProt Q8NET8); assay: FLIPR assay, TRPV3 inhibition; format: cell-based
T1 sequence (Q8NET8 1-790): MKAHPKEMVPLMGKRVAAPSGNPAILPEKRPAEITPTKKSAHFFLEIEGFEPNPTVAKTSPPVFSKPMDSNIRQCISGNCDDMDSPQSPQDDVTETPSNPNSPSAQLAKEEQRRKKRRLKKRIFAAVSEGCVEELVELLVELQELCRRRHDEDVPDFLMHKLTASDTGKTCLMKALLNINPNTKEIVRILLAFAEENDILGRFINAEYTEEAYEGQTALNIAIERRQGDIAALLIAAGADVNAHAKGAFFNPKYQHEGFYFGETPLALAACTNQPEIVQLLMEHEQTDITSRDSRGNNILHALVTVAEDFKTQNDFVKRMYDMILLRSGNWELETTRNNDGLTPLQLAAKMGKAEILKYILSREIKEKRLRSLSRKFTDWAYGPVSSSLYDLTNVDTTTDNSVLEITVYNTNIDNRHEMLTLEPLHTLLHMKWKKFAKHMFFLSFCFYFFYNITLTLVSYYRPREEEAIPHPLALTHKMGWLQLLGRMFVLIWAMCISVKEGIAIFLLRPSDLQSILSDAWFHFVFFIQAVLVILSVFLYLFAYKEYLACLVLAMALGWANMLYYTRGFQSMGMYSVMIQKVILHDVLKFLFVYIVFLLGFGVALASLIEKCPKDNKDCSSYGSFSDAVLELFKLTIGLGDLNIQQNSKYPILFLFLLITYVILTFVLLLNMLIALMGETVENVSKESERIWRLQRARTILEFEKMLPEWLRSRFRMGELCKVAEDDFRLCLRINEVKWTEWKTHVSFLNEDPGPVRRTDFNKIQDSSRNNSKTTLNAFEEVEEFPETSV
Text: The FLIPR assay is used to screen ion channel targets using membrane permeable fluorescent dyes. In particular, ion channel targets with significant Ca permeability, produce an increase in intracellular calcium that can be measured using calcium-sensitive dyes (Michelle R. Arkin et al. FLIPR™ Assays for GPCR and Ion Channel Targets. Assay Guidance Manual [Internet]. Bethesda (MD): Eli Lilly & Company and the National Center for Advancing Translational Sciences; 2004).
(§1) TRPV3 is an ionic channel that plays an important role in itching and inflammation, which are two characterizing aspects of ocular surface diseases such as VKC and AKC.
(§2) In details, human TRP cells are trypsinized, counted and seeded in black, clear-bottomed 96 well plates at a density of 50,000 cells per well and incubated overnight. Next day, media is removed from cell plates and 25 μl assay buffer is added. Red membrane potential or Calcium 5 dye solution (10 μl) is added to the wells and incubated at 37° C. for 1 hour. TRPV3, TRPML2 and TRPC4 are tested using the membrane potential dye.
(§3) Dye solution is made up in assay buffer. Compound dilutions are performed in 100% DMSO or dH2O then transferred to intermediate dilutions (5% DMSO/assay buffer or 5% dH2O/assay buffer) for a short time (<10 minutes) just before adding to the cell plate.
The plates are placed in the FLIPR and fluorescence monitored every 1.52 seconds. After 20 seconds 10 μl of the appropriate standard agonist is added and the fluorescence monitored for 5 minutes at ex/em: 488 nm/510-570 nm.
Reference agonists and antagonists have been tested against each channel to check that the value is within the acceptable range in order to validate the assays.
Percentage activation and inhibition values of the test compound and reference compounds has been evaluated.

TRPML2 = biological target: T2, TRPML2 (Homo sapiens, UniProt Q8IZK6); assay: FLIPR assay, TRPML2 inhibition; format: cell-based
T2 sequence (Q8IZK6 1-566): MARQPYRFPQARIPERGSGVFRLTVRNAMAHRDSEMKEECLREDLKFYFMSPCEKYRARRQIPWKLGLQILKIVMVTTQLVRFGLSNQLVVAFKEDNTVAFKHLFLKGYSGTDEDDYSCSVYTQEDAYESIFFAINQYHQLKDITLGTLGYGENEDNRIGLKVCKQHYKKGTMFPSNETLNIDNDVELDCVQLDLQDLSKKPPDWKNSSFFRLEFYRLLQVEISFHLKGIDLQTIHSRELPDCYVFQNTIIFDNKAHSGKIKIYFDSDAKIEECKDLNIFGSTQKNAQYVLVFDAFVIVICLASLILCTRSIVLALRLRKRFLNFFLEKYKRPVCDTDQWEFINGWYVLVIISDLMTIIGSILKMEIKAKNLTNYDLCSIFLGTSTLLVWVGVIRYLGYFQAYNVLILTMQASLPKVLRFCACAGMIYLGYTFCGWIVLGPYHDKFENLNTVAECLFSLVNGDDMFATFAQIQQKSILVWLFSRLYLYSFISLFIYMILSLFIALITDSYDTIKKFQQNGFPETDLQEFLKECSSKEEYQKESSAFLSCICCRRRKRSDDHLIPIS
Procedure: The FLIPR assay is used to screen ion channel targets using membrane permeable fluorescent dyes. […]
as §2, §3

eye of healthy rabbits = details: rabbit, in vivo
TRPC4 = biological target: T3, TRPC4 (Homo sapiens, UniProt Q9UBN4); assay: FLIPR assay, TRPC4 activation; format: cell-based; details: 30 μM
T3 sequence (Q9UBN4 1-977): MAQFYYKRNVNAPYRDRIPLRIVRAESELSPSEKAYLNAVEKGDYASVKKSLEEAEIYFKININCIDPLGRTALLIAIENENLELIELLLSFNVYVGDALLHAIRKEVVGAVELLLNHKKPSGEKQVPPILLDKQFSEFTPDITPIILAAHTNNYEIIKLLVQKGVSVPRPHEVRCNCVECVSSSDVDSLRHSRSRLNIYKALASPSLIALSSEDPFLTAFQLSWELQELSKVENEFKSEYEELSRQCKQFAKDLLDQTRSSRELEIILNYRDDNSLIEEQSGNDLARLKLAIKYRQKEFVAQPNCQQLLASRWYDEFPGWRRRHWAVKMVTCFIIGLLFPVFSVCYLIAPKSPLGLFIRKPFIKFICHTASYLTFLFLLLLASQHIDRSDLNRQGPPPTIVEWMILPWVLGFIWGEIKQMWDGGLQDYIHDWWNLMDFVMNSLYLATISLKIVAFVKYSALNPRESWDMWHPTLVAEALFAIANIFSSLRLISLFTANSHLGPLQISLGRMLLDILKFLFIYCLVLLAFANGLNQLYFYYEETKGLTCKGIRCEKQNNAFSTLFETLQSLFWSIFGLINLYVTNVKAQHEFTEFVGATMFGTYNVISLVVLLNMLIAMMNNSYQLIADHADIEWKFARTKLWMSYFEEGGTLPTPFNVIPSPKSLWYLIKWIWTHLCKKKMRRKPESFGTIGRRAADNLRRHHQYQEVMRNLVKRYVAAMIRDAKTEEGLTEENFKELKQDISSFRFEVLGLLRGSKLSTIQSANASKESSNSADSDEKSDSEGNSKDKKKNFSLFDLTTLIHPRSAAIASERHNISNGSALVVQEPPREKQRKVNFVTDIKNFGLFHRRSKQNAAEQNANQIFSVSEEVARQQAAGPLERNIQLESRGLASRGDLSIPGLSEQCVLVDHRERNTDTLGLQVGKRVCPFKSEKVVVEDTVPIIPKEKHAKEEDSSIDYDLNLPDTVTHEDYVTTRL
Procedure: The FLIPR assay is used to screen ion channel targets using membrane permeable fluorescent dyes.
as §1, §2, §3
After 20 seconds IsoCsA, CsA or standard agonist are added to the wells and the fluorescence monitored for 5 minutes at ex./em.

[1] = mouse, in vivo
tear secretion = assay: Tear secretion by modified Schirmer test in scopolamine-treated mice; format: in vivo; details: mouse, day 22 and day 25, compared between treated groups
Procedure: In details, 15 mice (N=5 per group) were randomly assigned at baseline to 3 groups and dry eye was induced by treatment with a subcutaneous injection protocol of 0.5 mg/0.2 ml scopolamine hydrobromide, as previously described (Yeh S et al. Invest Ophthalmol Vis Sci, 2003, 44 (1): 124-9). […] In the treatment groups, ten microliters of the test formulations were instilled in each mouse three times a day in both eyes starting at Day 1 after the first scopolamine injection for 25 days. The treatments were encoded, and the group allocation was blinded to the technician administering the treatment, and to the researcher assessing the outcome of the experiment. Group identification was uncovered at the end of the analysis. Tear secretion was also measured in all animals by modified Schirmer test at day 22 and at day 25, as described in Rossi S. et al. Arch Ital Biol. 2012 March; 150 (1): 15-21.

[2] = 56 μM, reference agonist, considered equal to 0%
[3] = 2 μM, agonist, considered equal to 0%

Compound: NCCOB(c1ccccc1)c1ccccc1 [2-APB, 2-aminoetoxy diphenyl borate]
TRPV3 Inhibition % Mean (TRPV3; [2]): 0% | TRPV3 Inhibition % n = 1 (TRPV3; [2]): 0% | TRPV3 Inhibition % n = 2 (TRPV3; [2]): 0%

TRPML2 Inhibition % Mean (TRPML2; [3]): 0% | TRPML2 Inhibition % n = 1 (TRPML2; [3]): 0% | TRPML2 Inhibition % n = 2 (TRPML2; [3]): 0%
Compound: [Ca+2].[Cl-].[Cl-] [CaCl2]

Compound: [Gd+3] [Gd3, Gadolinium]
TRPML2 Inhibition % Mean (TRPML2; 4 mM, antagonist): 89.6% | TRPML2 Inhibition % n = 1 (TRPML2; 4 mM, antagonist): 88.2% | TRPML2 Inhibition % n = 2 (TRPML2; 4 mM, antagonist): 90.9%

TRPV3 Inhibition % Mean (TRPV3; 100 μM, reference antagonist): 91.7% | TRPV3 Inhibition % n = 1 (TRPV3; 100 μM, reference antagonist): 90.2% | TRPV3 Inhibition % n = 2 (TRPV3; 100 μM, reference antagonist): 93.2%
Compound: N.N.N.N.N.N.N.N.N.N.N.N.N.N.[Cl-].[Cl-].[Cl-].[Cl-].[Cl-].[Cl-].[O-2].[O-2].[Ru+3].[Ru+3].[Ru+4] [RR, ruthenium red]

Compound: isocyclosporin A
frequency of the winking (eye of healthy rabbits): 5±1 | effect on activation of TRPC4 (TRPC4): does not have any effect on activation of this channel | mean level in Conjunctiva [1]: 20 ± 7 ng/mg | mean level in Cornea [1]: 15 ± 5 ng/mg | mean level in Intraocular tissues (combined) [1]: 2 ± 1 ng/mg | variability of tissue levels within different animals with the same treatment [1]: significantly lower variability | TRPML2 Inhibition % Mean (TRPML2; 30 μM): 71.2% | TRPML2 Inhibition % n = 1 (TRPML2; 30 μM): 63.9% | TRPML2 Inhibition % n = 2 (TRPML2; 30 μM): 78.5% | ability to antagonize TRPML2 in comparison with cyclosporin A (TRPML2; 30 μM): more than double | TRPV3 Inhibition % Mean (TRPV3; 30 μM): 60.1% | TRPV3 Inhibition % n = 1 (TRPV3; 30 μM): 63.7% | TRPV3 Inhibition % n = 2 (TRPV3; 30 μM): 56.5% | ability to antagonize TRPV3 relative to cyclosporin A (TRPV3; 30 μM): more than 4 fold | tear secretion (tear secretion): significantly higher levels
